Source: ChEMBL document CHEMBL1201862, “PubChem BioAssay data set” (2004)
Activity calls are given as the source filed them.

Legend:
[1] = test system: HEK293; test: cells; assay type: functional, cell-based; conditions: Homo sapiens
[2] = test system: HEK293; test: cells; assay type: functional, cell-based; conditions: Homo sapiens; remark: listed apart in the source
[3] = target: T1, X-box-binding protein 1 (Homo sapiens, UniProt P17861); assay type: functional, Cricetulus griseus;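 note: confirmatory dose-response counter-screen serving a CHOP assay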
T1 sequence (P17861 whole entry): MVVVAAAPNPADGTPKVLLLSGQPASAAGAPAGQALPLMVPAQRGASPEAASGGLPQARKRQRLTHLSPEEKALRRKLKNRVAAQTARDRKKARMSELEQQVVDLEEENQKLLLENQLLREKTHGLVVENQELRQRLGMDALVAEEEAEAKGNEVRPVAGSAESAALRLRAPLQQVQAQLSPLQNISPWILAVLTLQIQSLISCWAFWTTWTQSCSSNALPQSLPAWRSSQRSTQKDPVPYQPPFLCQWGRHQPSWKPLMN

[4] = target: Tumor necrosis factor (Homo sapiens, UniProt P01375); test: TNFa-triggered NF-kB activation inhibitors, SAR follow-up, cell-based, revised (AID 2337); assay type: functional
[5] = test system: HEK293; test: NOD1 signaling inhibitors, primary screen, cell-based, luminescence, uHTS (AID 1578); assay type: functional; conditions: Homo sapiens
[6] = test system: HEK293; test: cells; conditions: Homo sapiens
[7] = target: Nucleotide-binding oligomerization domain-containing protein 2 (Homo sapiens, UniProt Q9HC29); test: NOD2 signaling inhibitors, cell-based, luminescence, uHTS, HEK293 (AID 1566); assay type: functional
[8] = test system: HEK293; test: cells; assay type: functional, cell-based; conditions: Homo sapiens; remark: listed apart in the source
[9] = test system: HEK293; test: NOD2 signaling inhibitors in MDP-stimulated cells, cell-based, uHTS, luminescence (AID 2001); assay type: functional; conditions: Homo sapiens
[10] = target: T2, Nucleotide-binding oligomerization domain-containing protein 1 (Homo sapiens, UniProt Q9Y239); test: NOD1 signaling inhibitors, SAR follow-up, revised (AID 2333); assay type: functional
T2 sequence (Q9Y239 whole entry): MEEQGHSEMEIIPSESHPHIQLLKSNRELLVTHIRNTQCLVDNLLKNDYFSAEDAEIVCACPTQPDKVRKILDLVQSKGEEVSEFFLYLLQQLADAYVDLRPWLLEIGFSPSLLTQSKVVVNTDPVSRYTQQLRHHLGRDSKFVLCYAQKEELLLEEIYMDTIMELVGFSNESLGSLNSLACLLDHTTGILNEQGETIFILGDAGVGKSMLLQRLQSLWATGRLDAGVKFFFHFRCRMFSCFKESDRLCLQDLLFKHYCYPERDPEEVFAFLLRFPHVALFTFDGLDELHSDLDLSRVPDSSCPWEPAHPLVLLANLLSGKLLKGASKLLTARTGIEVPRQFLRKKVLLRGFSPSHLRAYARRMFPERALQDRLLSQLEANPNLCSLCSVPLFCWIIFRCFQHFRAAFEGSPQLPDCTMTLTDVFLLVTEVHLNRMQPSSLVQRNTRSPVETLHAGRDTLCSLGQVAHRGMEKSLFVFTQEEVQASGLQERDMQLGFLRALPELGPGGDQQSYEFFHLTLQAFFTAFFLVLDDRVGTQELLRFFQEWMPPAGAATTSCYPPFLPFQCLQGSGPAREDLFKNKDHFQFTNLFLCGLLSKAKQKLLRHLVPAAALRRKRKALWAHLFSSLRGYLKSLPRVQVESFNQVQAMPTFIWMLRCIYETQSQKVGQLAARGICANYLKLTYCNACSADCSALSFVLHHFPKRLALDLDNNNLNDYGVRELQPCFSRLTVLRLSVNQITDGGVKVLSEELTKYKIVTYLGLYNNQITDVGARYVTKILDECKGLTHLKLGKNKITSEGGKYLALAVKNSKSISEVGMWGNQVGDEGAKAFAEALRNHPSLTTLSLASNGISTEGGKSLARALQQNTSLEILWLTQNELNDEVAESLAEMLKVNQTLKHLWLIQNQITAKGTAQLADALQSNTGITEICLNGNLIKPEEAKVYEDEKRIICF

[11] = microbe, parasite or virus in culture; assay type: functional; conditions: Mycobacterium tuberculosis
[12] = target: Disintegrin and metalloproteinase domain-containing protein 17 (Homo sapiens, UniProt P78536); test: exosite inhibitors of ADAM17, dose response, biochemical (AID 743260)
[13] = cytotoxicity in MIN6 insulinoma cells, dose response, cytotoxicity control, cell-based, mouse insulinoma (AID 2122); assay type: functional;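 note: confirmatory high-throughput counterscreen run to flag cytotoxic compounds; mouse MIN-6 beta cells carrying an insulin promoter eGFP reporter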
[14] = ADAM10 protease inhibitors, dose response, selectivity assay for ADAM17 exosite inhibitor project, biochemical, FRET peptide substrate, recombinant human ADAM10 (AID 743259);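 note: ADAM10 enzyme cleaving a FRET peptide substrate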
[15] = Luminescence Cell-Based Dose Confirmation HTS to Identify Activators of 5'UTR Stem-Loop Driven Alpha-Synuclein mRNA Translation in H4 Neuroglioblastoma Cells. [Related pubchem assays: 1829 (Project Summary), 1814 (Primary HTS)]; assay type: functional
[16] = Luminescence Cell-Based Dose Response HTS to Identify Activators of Luciferase Translation or Activity in H4 […] Cells. [Related pubchem assays: 1829 (Project Summary), 1814 (Primary HTS)]; assay type: functional
[17] = HEp-2 cell cytotoxicity, dose response, cytotoxicity control for RSV inhibitor project, HTS (AID 2410); assay type: functional; conditions: human respiratory syncytial virus
[18] = test system: INS1; test: beta cell apoptosis inhibitors, cytokine rescue, dose response, luminescence, retest (AID 449756); assay type: functional, cell-based; conditions: Rattus norvegicus;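 note: cell death triggered by IL-1 beta plus TNF-alpha plus IFN-gamma mixture; protective hits raise ATP signal compared with cytokine alone wells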
[19] = test system: H4; test: Luminescence Cell-Based Dose Response HTS to Identify Activators of 5'UTR Stem-Loop Driven Prion Protein mRNA Translation in H4 Neuroglioblastoma Cells. [Related pubchem assays: 1829 (Project Summary), 1814 (Primary HTS)]; assay type: functional; conditions: Homo sapiens
[20] = insulin promoter down-regulators in MIN6 cells, imaging, high-content screening, mouse beta cells (AID 1628); assay type: functional

Chain of Tumor necrosis factor (P01375 whole entry): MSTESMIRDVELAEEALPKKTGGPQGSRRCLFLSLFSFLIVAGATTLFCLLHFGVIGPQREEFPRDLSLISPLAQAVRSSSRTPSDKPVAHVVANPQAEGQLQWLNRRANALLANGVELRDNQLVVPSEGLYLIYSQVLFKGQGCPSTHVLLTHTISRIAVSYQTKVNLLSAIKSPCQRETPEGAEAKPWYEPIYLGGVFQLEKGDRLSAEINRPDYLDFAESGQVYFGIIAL
Chain of Nucleotide-binding oligomerization domain-containing protein 2 (Q9HC29 whole entry, the tested form may be a part): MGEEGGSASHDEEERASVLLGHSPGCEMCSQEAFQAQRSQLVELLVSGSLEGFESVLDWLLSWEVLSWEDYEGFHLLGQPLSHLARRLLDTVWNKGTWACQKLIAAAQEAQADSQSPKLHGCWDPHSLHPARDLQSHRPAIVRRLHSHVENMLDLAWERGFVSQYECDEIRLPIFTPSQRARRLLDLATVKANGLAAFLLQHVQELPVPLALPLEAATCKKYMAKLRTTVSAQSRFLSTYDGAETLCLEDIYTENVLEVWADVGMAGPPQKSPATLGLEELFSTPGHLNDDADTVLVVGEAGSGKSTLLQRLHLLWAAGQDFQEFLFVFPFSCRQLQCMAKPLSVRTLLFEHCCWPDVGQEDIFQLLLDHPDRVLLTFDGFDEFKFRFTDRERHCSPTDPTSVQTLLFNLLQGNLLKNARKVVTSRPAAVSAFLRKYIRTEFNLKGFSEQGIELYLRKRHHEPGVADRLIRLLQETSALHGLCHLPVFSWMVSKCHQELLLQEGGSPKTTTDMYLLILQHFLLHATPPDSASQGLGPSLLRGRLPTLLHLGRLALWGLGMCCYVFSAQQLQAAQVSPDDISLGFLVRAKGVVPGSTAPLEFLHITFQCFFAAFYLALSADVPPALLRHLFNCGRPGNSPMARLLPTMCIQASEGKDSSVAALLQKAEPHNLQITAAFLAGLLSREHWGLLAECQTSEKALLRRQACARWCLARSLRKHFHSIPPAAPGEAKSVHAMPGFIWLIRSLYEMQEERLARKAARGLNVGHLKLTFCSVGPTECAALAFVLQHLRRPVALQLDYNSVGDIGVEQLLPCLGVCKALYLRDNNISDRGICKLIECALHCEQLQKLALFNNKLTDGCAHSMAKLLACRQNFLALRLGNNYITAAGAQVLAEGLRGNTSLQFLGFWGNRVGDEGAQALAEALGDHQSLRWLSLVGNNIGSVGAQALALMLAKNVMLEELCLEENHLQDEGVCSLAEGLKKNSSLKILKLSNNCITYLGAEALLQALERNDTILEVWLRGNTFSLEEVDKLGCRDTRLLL
Chain of Disintegrin and metalloproteinase domain-containing protein 17 (P78536 whole entry, the tested form may be a part): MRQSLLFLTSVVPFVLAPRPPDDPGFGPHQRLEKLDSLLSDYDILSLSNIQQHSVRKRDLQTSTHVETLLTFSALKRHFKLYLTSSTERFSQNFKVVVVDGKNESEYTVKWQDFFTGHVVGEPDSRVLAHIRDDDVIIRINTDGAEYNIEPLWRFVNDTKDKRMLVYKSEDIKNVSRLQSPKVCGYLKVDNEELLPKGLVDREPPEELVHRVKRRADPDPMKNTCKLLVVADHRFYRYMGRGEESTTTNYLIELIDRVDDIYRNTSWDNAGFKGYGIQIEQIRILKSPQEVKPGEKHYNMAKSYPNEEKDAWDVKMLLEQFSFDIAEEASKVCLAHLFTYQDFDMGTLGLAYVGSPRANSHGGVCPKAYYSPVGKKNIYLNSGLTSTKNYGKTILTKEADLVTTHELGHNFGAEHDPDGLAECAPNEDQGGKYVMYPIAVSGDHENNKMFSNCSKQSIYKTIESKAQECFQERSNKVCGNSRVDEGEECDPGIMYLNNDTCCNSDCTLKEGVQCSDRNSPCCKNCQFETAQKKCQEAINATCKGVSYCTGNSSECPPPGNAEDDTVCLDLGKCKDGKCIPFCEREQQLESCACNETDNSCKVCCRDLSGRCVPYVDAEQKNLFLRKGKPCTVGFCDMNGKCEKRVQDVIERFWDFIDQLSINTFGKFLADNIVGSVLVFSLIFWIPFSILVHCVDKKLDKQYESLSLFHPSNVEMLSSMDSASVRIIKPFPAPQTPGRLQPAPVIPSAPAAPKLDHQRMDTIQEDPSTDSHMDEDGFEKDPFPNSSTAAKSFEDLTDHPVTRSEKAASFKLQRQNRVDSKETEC

For `CCCCn1c(=O)c(C(=O)Nc2cnccn2)c(O)c2ccccc21`, the IC50 [1] was > 20 µM (inactive), the IC50 [2] was > 20 µM (inactive) and the “Absolute IC50 (XBP1)” value [3] was 10 µM. For the same compound, the IC50 [4] was 4.92 µM (active), the EC50 [5] was 3.1 µM (active) and the IC50 [6] was > 20 µM (inactive). The EC50 [7] was 1.72 µM (active), the IC50 [8] was > 20 µM (inactive) and the IC50 [9] was 7.07 µM (active). The IC50 [10] was 7.68 µM (active).
For `O=C(Nc1nc2ccc(F)cc2s1)C1CCN(S(=O)(=O)c2cc([N+](=O)[O-])ccc2Cl)CC1`, the CC50 [11] was 20.2 µM (active), the IC50 [12] was > 69.5 µM (inactive) and the IC50 [13] was 2.37 µM (active). The IC50 [14] was > 7.72 µM (active), the EC50 [15] was 14.7 µM (active) and the EC50 [16] was 25.8 µM (active). The CC50 [17] was 12 µM (active), the AC50 [18] was 8.24 µM (active) and the EC50 [19] was 4.7 µM (active). For the same compound, the IC50 [20] was 2.34 µM (active).
